These are literature values, as cited in patent US20210307362A1, “Supplement for animal feed for sucking pigs” (Proviron Holding N.V., priority 2018, published 2021).

Each structure is given as a SMILES string.

Regarding `CCCC(=O)OCC(COC(=O)CCC)OC(=O)CCC` [Glycerol tri butyrate], the solubility in water entry is recorded as “insoluble in water”.
